Measured values as given in patent US20240376099A1, “COMPOUNDS AND COMPOSITIONS AS INHIBITORS OF ENDOSOMAL TOLL-LIKE RECEPTORS” (Novartis AG, priority 2016, published 2024).

Key:
[1] = target: T1, TLR7 (Homo sapiens, UniProt Q9NYK1); experiment: huPBMC TLR7 Antagonist IFNα Assay; type: cell-based; conditions: human PBMCs stimulated with ssRNA40 10 μg/mL (DOTAP), 14-16 hrs; IFNα2b AlphaLISA read-out
T1 construct: Fresh blood was collected from normal human donors; endogenous in cells; host or cells: human PBMCs from fresh donor blood
T1 sequence (Q9NYK1 27-1049): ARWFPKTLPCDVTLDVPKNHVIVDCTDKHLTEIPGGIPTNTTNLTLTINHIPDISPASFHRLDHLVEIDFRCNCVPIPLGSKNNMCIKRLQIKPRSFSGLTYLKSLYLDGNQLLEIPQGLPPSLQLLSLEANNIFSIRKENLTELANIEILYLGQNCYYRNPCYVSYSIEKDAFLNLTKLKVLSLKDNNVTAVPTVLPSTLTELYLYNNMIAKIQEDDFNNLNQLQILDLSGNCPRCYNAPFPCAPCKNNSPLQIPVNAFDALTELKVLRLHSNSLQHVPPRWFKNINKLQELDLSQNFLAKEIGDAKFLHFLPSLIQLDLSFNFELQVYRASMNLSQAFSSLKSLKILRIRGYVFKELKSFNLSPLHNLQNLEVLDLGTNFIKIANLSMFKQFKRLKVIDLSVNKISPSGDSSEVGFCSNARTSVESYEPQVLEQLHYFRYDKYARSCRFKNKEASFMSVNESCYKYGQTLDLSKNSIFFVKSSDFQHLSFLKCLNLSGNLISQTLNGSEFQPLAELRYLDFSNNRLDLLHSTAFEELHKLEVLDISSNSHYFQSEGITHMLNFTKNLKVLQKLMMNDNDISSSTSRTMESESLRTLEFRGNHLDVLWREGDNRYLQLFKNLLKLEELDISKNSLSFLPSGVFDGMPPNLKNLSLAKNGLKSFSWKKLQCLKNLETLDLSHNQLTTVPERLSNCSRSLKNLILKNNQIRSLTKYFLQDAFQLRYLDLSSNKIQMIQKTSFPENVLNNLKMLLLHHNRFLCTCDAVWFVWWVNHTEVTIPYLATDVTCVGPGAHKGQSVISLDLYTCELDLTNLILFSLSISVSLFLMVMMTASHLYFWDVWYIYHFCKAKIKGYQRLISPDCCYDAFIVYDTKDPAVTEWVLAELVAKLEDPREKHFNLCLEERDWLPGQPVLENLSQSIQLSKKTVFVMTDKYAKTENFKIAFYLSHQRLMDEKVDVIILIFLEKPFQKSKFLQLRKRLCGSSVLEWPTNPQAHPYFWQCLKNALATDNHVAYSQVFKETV
Procedure: (§1) Compounds were generally serially diluted (1/3) in DMSO and plated on sterile 384 well tissue culture plates and stored until ready for use. Each ten-point dilution was typically plated in triplicate in parallel rows.
(§2) Fresh blood was collected from normal human donors underwritten informed consent in heparinized syringes on the morning of the assay. The blood was diluted in RPMI-1640 medium and the white blood cells were separated from red blood cells by centrifugation (800 g 15′ 0 acceleration, 0 brake) on a Ficoll cushion. Peripheral blood mononuclear cells (PBMCs) were separated from platelets by a series of low-speed centrifugations (1000RPM 10′) in PBS+5% HI—FBS and 1 mM EDTA. Purified PBMCs were re-suspended in assay medium (RPMI-1640 w Glutamax (Invitrogen) supplemented with 5% HI—FBS, 10 mM HEPES, 50 uM β-mercaptoethanol, and 100 mG/L penicillin/streptomycin cocktail). Viable PBMCs were counted on a hemacytometer and kept on ice until ready for plating.
(§3) A 4× concentration (4 ug/ml or 40 ug/ml for TLR8 or TLR7 assays, respectively) of the TLR7/8 agonist ssRNA40 (IDT) was complexed with 10% DOTAP (Roche) in assay medium for 30 min prior to addition to the PBMC suspension (5 million cells/ml). After addition, the final concentration of ssRNA40 in the TLR7/8 stimulated PBMC suspension was 1 μg/ml for TLR8 assay, and 10 μg/mL for the TLR7 assay. The final DOTAP concentration was 2.5%. Diluted PBMCs (5 million cells/ml) were treated with 4×TLR9 agonist ODN2216 (Invivogen). Final concentration of ODN2216 in TLR9 stimulated PBMC suspension was 0.3 μM.
(§4) Agonist stimulated PBMCs were plated on the compound treated 384 well plates at 150,000 cells/well. Un-stimulated PBMCs were plated as controls on each plate. Plating volume was 40 μL per well. DMSO concentration in each well was 0.25%.
(§5) A separate plate, without compounds, with titrations of ssRNA40 and ODN2216 was included in every assay to measure agonist response of each donor's PBMC prep. Assay plates were placed in a tissue culture incubator (37° C., 5% CO2) for 14-16 hrs. After this incubation, the plates were centrifuged and stored at −20° C. until they were assayed.
(§6) IL-6 TR-FRET Assay for TLR8 activity: • 1) Cisbio Human IL-6 kit, 20,000 tests (62TNFPEC), and GNF High-Base TC 384 well plates (cat #789163G) were used; • 2) the Anti-TIL-6 Cryptate conjugate and the Anti-IL-6 XL665 conjugate were diluted 1:20 in Reconstitution Buffer; • 3) a 1:1 mixture of 3 μl/well Anti-IL-6 Cryptate conjugate and 3 μl/well Anti-IL-6 XL665 conjugate was prepared; • 4) 6 μl/well HTRF dilution mastermix was added to 6 μl of transferred supernatant samples in proxiplates; • 5) The plates were incubated for 3 hrs at rt in the dark; and • 6) the levels of IL-6 production was measured using an Envision plate reader (665 nm (emmission)/590 nm (excitation)) with HTRF settings and ratiometric read-out: (XL665 emission/Eu Cryptate emission)×10,000. IFNα2b AlphaLISA Assay for TLR7 or TLR9 activity After thawing the assay plates, 6 μL of supernatant samples were transferred to a low-volume AlphaPlate 384SW (Perkin-Elmer). The concentration of IFNα in supernatants was measured using the IFNα2b AlphaLISA Assay (Perkin-Elmer: AL297F). 3 μL of IFNα acceptor beads/biotinylated antibody solution was added first, using laboratory automation. After an hour incubation, […] of streptavidin […] bead solution was added. The plates containing this mixture were incubated in the dark for an hour and read on an appropriate plate reader at reading parameters set by the manufacturer. (Envision, EnSpire: Perkin-Elmer).

[2] = target: T2, TLR8 (Homo sapiens, UniProt Q9NR97); experiment: huPBMC TLR8 Antagonist IL-6 TR-FRET Assay; type: cell-based; parameters: Fresh blood was collected from normal human donors; endogenous in cells; host or cells: human PBMCs from fresh donor blood; conditions: human PBMCs stimulated with ssRNA40 1 μg/ml (DOTAP), 14-16 hrs; IL-6 TR-FRET read-out
T2 sequence (Q9NR97 27-1041): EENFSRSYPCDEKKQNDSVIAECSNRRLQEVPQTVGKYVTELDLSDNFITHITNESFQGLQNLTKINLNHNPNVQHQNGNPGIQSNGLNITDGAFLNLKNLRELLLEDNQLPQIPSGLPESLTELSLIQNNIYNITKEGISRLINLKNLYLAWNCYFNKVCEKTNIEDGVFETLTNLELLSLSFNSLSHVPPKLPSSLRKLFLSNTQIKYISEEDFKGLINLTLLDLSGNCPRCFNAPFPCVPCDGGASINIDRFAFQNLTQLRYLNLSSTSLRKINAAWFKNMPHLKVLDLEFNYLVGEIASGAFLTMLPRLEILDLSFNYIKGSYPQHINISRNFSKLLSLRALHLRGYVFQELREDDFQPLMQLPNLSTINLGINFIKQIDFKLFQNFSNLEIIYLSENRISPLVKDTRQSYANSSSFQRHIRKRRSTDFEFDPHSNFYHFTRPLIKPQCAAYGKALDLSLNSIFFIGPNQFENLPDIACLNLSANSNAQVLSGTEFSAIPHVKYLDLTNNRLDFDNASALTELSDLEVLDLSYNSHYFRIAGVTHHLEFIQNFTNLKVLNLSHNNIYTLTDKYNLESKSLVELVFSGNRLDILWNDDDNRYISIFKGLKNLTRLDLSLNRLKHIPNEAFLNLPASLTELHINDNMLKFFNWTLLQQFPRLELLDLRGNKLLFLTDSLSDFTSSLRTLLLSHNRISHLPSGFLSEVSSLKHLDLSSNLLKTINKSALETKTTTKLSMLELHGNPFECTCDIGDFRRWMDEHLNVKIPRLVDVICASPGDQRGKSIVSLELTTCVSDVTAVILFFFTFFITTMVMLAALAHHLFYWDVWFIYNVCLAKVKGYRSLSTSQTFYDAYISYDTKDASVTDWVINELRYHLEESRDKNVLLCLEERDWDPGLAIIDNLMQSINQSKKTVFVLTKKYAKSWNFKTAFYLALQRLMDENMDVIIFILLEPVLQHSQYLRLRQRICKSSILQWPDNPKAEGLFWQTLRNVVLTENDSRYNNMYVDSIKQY
Procedure: as §1, §2, §3, §4, §5, §6

IC50 [1] | IC50 [2] | SMILES
5 nM | 11 nM | Cc1cc(N2CCc3c(c(C)nn3CC34CCC(N5CCCCC5)(CC3)CC4)C2)c2cnn(C)c2n1 [compound 67, 5-(1,6-dimethyl-1H-pyrazolo[3,4-b]pyridin-4-yl)-3-methyl-1-((4-(piperidin-1-yl)bicyclo[2.2.2]octan-1-yl)methyl)-4,5,6,7-tetrahydro-1H-pyrazolo[4,3-c]pyridine]
4 nM | 20 nM | Cc1cc(N2CCc3c(c(C)nn3CC34CCC(N5C[C@H]6CC[C@@H](C5)O6)(CC3)CC4)C2)c2cnn(C)c2n1 [compound 120, (1R,5S)-3-(4-((5-(1,6-dimethyl-1H-pyrazolo[3,4-b]pyridin-4-yl)-3-methyl-4,5,6,7-tetrahydro-1H-pyrazolo[4,3-c]pyridin-1-yl)methyl)bicyclo[2.2.2]octan-1-yl)-8-oxa-3-azabicyclo[3.2.1]octane]
6 nM | 2790 nM | Cc1cc(N2CCc3c(c(C)nn3CC34CCC(NC(=O)CN(C)S(C)(=O)=O)(CC3)CC4)C2)c2cnn(C)c2n1 [compound 138, N-(4-((5-(1,6-dimethyl-1H-pyrazolo[3,4-b]pyridin-4-yl)-3-methyl-4,5,6,7-tetrahydro-1H-pyrazolo[4,3-c]pyridin-1-yl)methyl)bicyclo[2.2.2]octan-1-yl)-2-(N-methylmethylsulfonamido)acetamide]
67 nM | 3540 nM | CC(=O)N(C)CC(=O)NC12CCC(Cn3nc(C)c4c3CCN(c3cc(C)nc5c3cnn5C)C4)(CC1)CC2 [compound 139, N-(4-((5-(1,6-dimethyl-1H-pyrazolo[3,4-b]pyridin-4-yl)-3-methyl-4,5,6,7-tetrahydro-1H-pyrazolo[4,3-c]pyridin-1-yl)methyl)bicyclo[2.2.2]octan-1-yl)-2-(N-methylacetamido)acetamide]

The remaining lines, values behind:

SMILES | IC50 [1] | IC50 [2]
Cc1cc(N2CCc3c(c(C)nn3CC34CCC(N)(CC3)CC4)C2)c2ccn(C)c2n1 [Compound No. 5, 4-((5-(1,6-dimethyl-1H-pyrrolo[2,3-b]pyridin-4-yl)-3-methyl-4,5,6,7-tetrahydro-1H-pyrazolo[4,3-c]pyridin-1-yl)methyl)bicyclo[2.2.2]octan-1-amine] | 397 nM | 433 nM
Cc1cc(N2CCc3c(c(C)nn3CC34CCC(NS(C)(=O)=O)(CC3)CC4)C2)c2cnn(C)c2n1 [Compound No. 48, N-(4-((5-(1,6-dimethyl-1H-pyrazolo[3,4-b]pyridin-4-yl)-3-methyl-4,5,6,7-tetrahydro-1H-pyrazolo[4,3-c]pyridin-1-yl)methyl)bicyclo[2.2.2]octan-1-yl)methanesulfonamide] | 13 nM | 
Cc1cc(N2CCc3c(c(C)nn3CC34CCC(NCC(F)F)(CC3)CC4)C2)c2cnn(C)c2n1 [Compound No. 61, N-(2,2-difluoroethyl)-4-((5-(1,6-dimethyl-1H-pyrazolo[3,4-b]pyridin-4-yl)-3-methyl-4,5,6,7-tetrahydro-1H-pyrazolo[4,3-c]pyridin-1-yl)methyl)bicyclo[2.2.2]octan-1-amine] | 12 nM | 129 nM
Cc1nc(N2CCc3c(c(C)nn3CC34CCC(NC(=O)C5CNC5)(CC3)CC4)C2)c2c(n1)c(C)nn2C [compound 32, N-(4-((3-methyl-5-(1,3,5-trimethyl-1H-pyrazolo[4,3-d]pyrimidin-7-yl)-4,5,6,7-tetrahydro-1H-pyrazolo[4,3-c]pyridin-1-yl)methyl)bicyclo[2.2.2]octan-1-yl)azetidine-3-carboxamide] | 124 nM | 125 nM
Cc1cc(N2Cc3cnn(CC45CCC(N)(CC4)CC5)c3C(C)(C)C2)c2cnn(C)c2n1 [compound 60, 4-((5-(1,6-dimethyl-1H-pyrazolo[3,4-b]pyridin-4-yl)-7,7-dimethyl-4,5,6,7-tetrahydro-1H-pyrazolo[4,3-c]pyridin-1-yl)methyl)bicyclo[2.2.2]octan-1-amine] | 1030 nM | 277 nM
Cc1nn(CC23CCC(N)(CC2)CC3)c2c1CN(c1ccnc(-c3ccccc3)c1)CC2 [compound 63, 4-((3-methyl-5-(2-phenylpyridin-4-yl)-4,5,6,7-tetrahydro-1H-pyrazolo[4,3-c]pyridin-1-yl)methyl)bicyclo[2.2.2]octan-1-amine] | 34 nM | 568 nM
